How the values were obtained:
[1] = tested on: pacing heart failure preparations (Yorkshire pigs); assay: Systemic and pulmonary hemodynamics after A1 adenosine receptor antagonist infusion in pacing heart failure pigs (Example 1); format: in vivo, pig
From the text: Nineteen Yorkshire pigs (20-25 kg, male Hambone Farms, SC) were instrumented in order to induce pacing cardiac heart failure as described in Tomita et al., Circulation, 83, pp. 635-644 (1991). Briefly, under isoflurane anesthesia (3% in 1.5 L/min of oxygen) and through a left thoracotomy, a shielded stimulated electrode was sutured onto the left atrium, connected to a modified programmable pacemaker (8329 Medtronic, Inc., Minneapolis, Minn.) and buried in a subcutaneous pocket. Ten to fourteen days following recovery from the surgical procedure, a baseline echocardiographic study was performed and pacing initiate at 240 beats/min for 3 weeks. An additional group of 7 normal control animals were cared for in identical fashion with the exception of the pacing protocol. At the conclusion of the 3-week pacing period, the pacemakers were de-activated and echocardiographic studies were performed. For these studies, the animals were brought to the laboratory and the pacemakers were deactivated. Two-dimensional and M-mode echocardiographic studies (ATL Ulmark VI, 2.25 MHz transducer, Bothell, Wash.) were used to image the left ventricle from a right parasternal approach. Following the echocardiographic study, the animals were prepared for acute instrumentation and initiation of the study protocol.
The pigs were anesthetized with intravenous boluses of sufentanyl 2.0 μg/kg, etomidate 0.3 mg/kg, and vecuronium 10 mg, after which a tracheostomy was performed. A tubocurarine 12 mg intravenous bolus was administered after obtaining arterial pressure. Anesthesia was maintained throughout the procedure by continuous intravenous infusions of morphine sulfate 3 mg/kg/hr and tubocurarine 2 mg/hr. Etomidate 0.1 mg/kg intravenous was also given at 30 minute intervals. A maintenance infusion of 10 ml/kg/hr of lactated Ringer's solution was maintained throughout the protocol. […] A multi-lumened thermodilution catheter (7.5 Fr, Baxter Healthcare Corp., Irvine, Calif.) was positioned in a pulmonary artery via the right external jugular vein and a large bore catheter (7 Fr) was placed in the left external jugular vein for fluid administration. The carotid artery was exposed and cannulated, and the catheter (7 Fr) was advanced to the aortic root for aortic blood pressure measurements and blood samplings.
Following instrumentation and a 15-minute stabilization period, baseline hemodynamics were recorded and digitized. Thermodilution derived cardiac output and ejection fraction were obtained from the pulmonary artery catheter in triplicate. All measurements were simultaneously recorded with the ventilator temporarily suspended in order to prevent respiratory artifact the recordings. An arterial sample was drawn for electrolyte assays. Pulmonary and systemic vascular resistances were computed from the thermodilution cardiac output and pressure measurements using standard formulae.
Following instrumentation and collection of baseline measurements, the animals were randomly assigned to receive either vehicle infusion (polyethylene glycol, 3 ml intravenous, n=10) or the A1 adenosine receptor antagonist (1 mg/kg 1,8-(3-Oxa-tricyclo[3.2.1.0^2,4]oct-6-yl)-1,3-dipropyl-3,7-dihydro-purine-2,6-dione (BG9719); n=9). Following infusion of vehicle or BG9719, the hemodynamic measurements described in the previous section were repeated at 10, 30, 60, 90, 120 minutes post infusion.
Changes in hemodynamics were initially examined between the control and A1 adenosine receptor antagonist (BG9719) groups by ANOVA. Comparisons between these baseline values following randomization were performed by a 2-way ANOVA. Comparisons of these parameters following infusion were compared using a multi-way ANOVA for repeated measures. Pair-wise comparisons were performed with a Bonferroni adjusted t-test. All statistical analyses were performed using statistical software programs (BMDP Statistical Software Inc. University of California Press, Los Angeles, Calif.).

[2] = tested on: pacing HF preparations (Yorkshire pigs); assay: Systemic and pulmonary hemodynamics after A1 adenosine receptor antagonist infusion in pacing heart failure pigs (Example 2); format: in vivo, pig
Procedure: Four Yorkshire pigs (25-30 kg, male, Hambone Farms, SC) were implanted with a pacemaker (8329, Medtronic, Inc., Minneapolis, Minn.) in order to induce pacing CHF as described above. Ten to 14 days following recovery from the surgical procedure, a baseline echocardiographic study (ATL Ultramark VI, 2.25 MHz transducer, Bothell, Wash.) was performed and pacing initiated at 240 beats/min for 3 weeks. An additional group of 6 normal control animals were cared for in identical fashion with the exception of the pacing protocol. At the conclusion of the 3-week pacing period, the pacemakers were deactivated and echocardiographic studies were used to image the LV from a right parasternal approach. Following the echocardiographic study, the animals were prepared for acute instrumentation and initiation of the study protocol.
The pigs were anesthetized (i.v. sufentanyl […], etomidate 0.3 mg/kg) and paralyzed (vecuronium 10 mg, tubocurarine 12 mg). A maintenance infusion of 10 ml/kg/hr of lactated ringer's solution was maintained throughout the protocol. A thermodilution catheter (7.5 Fr, Baxter Healthcare Corp., Irvine, Calif.) was positioned in the pulmonary artery via the right external jugular vein and a large bore catheter (7 Fr) was placed in the left external jugular vein for fluid administration. The carotid artery was exposed and cannulated, and the catheter (7 Fr) was advanced to the aortic root for aortic blood pressure measurements and blood sampling drained.
Following instrumentation and a 10-minute stabilization period, baseline hemodynamics were recorded and digitized. Thermodilution derived cardiac output and ejection fraction were obtained from the pulmonary artery catheter in triplicate. Pulmonary and systemic vascular resistances were computed from the pressure measurements and cardiac output and using standard formulae.
Following instrumentation and collection of baseline measurements, the A1 receptor antagonist (3-[4-(2,6-Dioxo-1,3-dipropyl-2,3,6,7-tetrahydro-1H-purin-8-yl)-bicyclo[2.2.2]oct-1-yl]-propionic acid (BG9928), 1 mg/kg) was infused intravenously. Hemodynamic measurements described in the previous section were repeated at 10, 20, 30, 60, 90, and 120 minutes post infusion.
Comparisons of basal hemodynamics between the control and HF groups were performed using Student's t-test. Time-dependent changes in hemodynamics following A1 block infusion were examined by ANOVA. Pair wise comparisons were performed with a Bonferroni adjusted t-test. All statistical analyses were performed using statistical software programs (BMDP Statistical Software Inc. University of California Press, Los Angeles, Calif.). Results are presented as mean ± standard error of the mean (SEM). Values of p<0.05 were considered to be statistically significant.

[3] = BG9719 1 mg/kg infusion, 10-120 min post infusion
[4] = BG9928 1 mg/kg intravenous infusion

Structure (SMILES) | pulmonary vascular resistance (PVR), decrease from baseline ([1]; 1 mg/kg intravenous infusion, 10 min post treatment, then returned to baseline levels, p<0.05) [%] | pulmonary artery pressure (PAP), change in words ([1]; 1 mg/kg, 30 minutes after treatment, remained depressed) | pulmonary capillary wedge pressure (PCWP), change in words ([1]; 1 mg/kg, 90 minutes after treatment) | pulmonary capillary wedge pressure (PCWP) ([1]; 1 mg/kg, 90 minutes post treatment, p<0.05, mean±SEM) [mmHg] | mean pulmonary artery pressure after treatment ([1]; 1 mg/kg, from 30 min post treatment, baseline 30±1 mmHg, p<0.05, mean±SEM) [mmHg] | systemic vascular resistance, change from baseline ([1]; BG9719 1 mg/kg infusion) | cardiac output (CO), change from baseline [1, 3] | heart rate (HR), change from baseline [1, 3] | mean arterial pressure (MAP), change from baseline [1, 3] | systemic vascular resistance (SVR), change from baseline ([2]; 1 mg/kg intravenous infusion, 10 min post treatment) | pulmonary vascular resistance (PVR), fall from baseline ([2]; 1 mg/kg intravenous infusion, 10 min post treatment, p<0.05) [%] | cardiac output, change from baseline [2, 4] | heart rate, change from baseline [2, 4] | mean arterial pressure, change from baseline [2, 4]
CCCn1c(=O)c2[nH]c(C3CC4CC3C3OC43)nc2n(CCC)c1=O (centres unmarked) [BG9719, 8-(3-Oxa-tricyclo[3.2.1.0^2,4]oct-6-yl)-1,3-dipropyl-3,7-dihydro-purine-2,6-dione] | 38 | decreased | decreased | 9 ± 2 | 23±3 | No change | No change | No change | No change |  |  |  |  | 
CCCn1c(=O)c2[nH]c(C34CCC(CCC(=O)O)(CC3)CC4)nc2n(CCC)c1=O [BG9928, 3-[4-(2,6-Dioxo-1,3-dipropyl-2,3,6,7-tetrahydro-1H-purin-8-yl)-bicyclo[2.2.2]oct-1-yl]-propionic acid] |  |  |  |  |  |  |  |  |  | no change | 18 | No change | No change | No change

From patent US20040259889A1, “Methods of treating pulmonary disease” (priority 2001, published 2004)
